Data set [1] can be described thus: Cytotoxic assay by MTT method. Particulars: murine, IEC-6 small intestinal cells, MTT, 72 h exposure; read-out: CC50, cytotoxicity on IEC-6 cell line. The format is cell-based, murine. Here is the method:
(§1) The cytotoxicity on murine small intestinal IEC-6 cells were assayed by MTT (3-[4,5-dimethyl thiazol-2-yl]-2,5-diphenyl tetrazolium bromide) method. The IEC-6 cells were cultured in Dulbecco’s modified Eagle’s medium (DMEM) supplemented with 5% fetal bovine serum (FBS) under a humidified atmosphere of 5% CO2 and 95% air at 37 °C. Cell suspension, 100 μL, at a density of 2 × 10^4 cell mL^−1 was plated in 96-well microtiter plates and exposed to different concentrations of compounds in triplicate for 72 h. The initial concentrations of compounds were 2 mg/mL in DMSO, and then were diluted into 625, 125, 25, 5, and 1 μg/mL with RPMI-1640 medium, respectively. The experiments were divided into blank control, testing compounds and the positive control groups, and each group was set up three parallels. Then, 10 μL of PBS containing MTT (final concentration: 0.5 mg/mL) was added to each well. After 4 h incubation at 37 °C, the supernatant was removed and 200 μL of DMSO was added to each well to solubilize the formazan crystals. After vigorous shaking, absorbance values were measured in a microplate reader (Bio-Rad, USA) at 570 nm. The cytotoxicity was represented at these concentrations as [(ODblank − ODdrug)/ODblank × 100%]. The CC50 value, defined as the compound concentration necessary to induce cell cytotoxicity by 50%, was calculated by SPSS (Statistical Product and Service Solutions) v19.0 software.

The subject of data set [2] is murine small intestinal IEC-6 cells. Briefly: Cytotoxic assay by MTT method. The format is cell-based. Particulars: for selectivity index (SI): CC50 (IEC-6) relative to IC50 (α-glucosidase). How it is done:
as §1

Data set [3] has as its target α-glucosidase. Kind of data set: α-Glucosidase inhibitory effect assay with pNPG as substrate. The note with it: 37 °C, 15 min, pH 6.8, read-out: IC50, α-glucosidase inhibition. Format: biochemical. Here is the method: The inhibitory effects were assayed as described preciously. The sample was dissolved in sodium phosphate buffer (PBS, pH 6.8) at three concentrations. A volume of 10 μL of the sample solution, 20 μL of PBS and 20 μL of […] p-nitrophenyl-α-D-glucopyranoside (pNPG) solution (in phosphate buffer) were mixed in a 96-well microplate and incubated at 37 °C for 5 min. […] After incubating at 37 °C for 15 min, the absorbance at 405 nm was recorded by a Spectra max 190 micro plate reader (Molecular Devices Inc.).

Data set [4] has as its system α-glucosidase. Briefly: Kinetics of α-glucosidase inhibition (Lineweaver-Burk plot analysis). Format: biochemical. The note with it: for mode of α-glucosidase inhibition: Lineweaver-Burk plot; for Ki: pNPG 0.5–2.0 mM, 37 °C, 15 min. Here is the method: Optimal amounts of compounds 1 and 2 used were determined based on the enzyme inhibitory activity assay.

Structures are written as SMILES.

These results are taken from paper PMC4731795, “New α-glucosidase inhibitors from marine algae-derived Streptomyces sp. OUCMDZ-3434” (Scientific Reports, 2016).

One may read the CC50 as the concentration giving 50% cytotoxicity. One may read the IC50 as the midpoint of a concentration-inhibition curve. The Ki is the equilibrium dissociation constant of an inhibitor or competing ligand from its target. A high value points to weaker binding. Take `O=C1C[C@](O)(c2ccccc2)[C@@H](c2cc(O)c(Cc3c(O)cc(-c4c(-c5ccccc5)cc(O)c5c(O)cccc45)oc3=O)c(=O)o2)c2cccc(O)c21` [Compound 1, Wailupemycin H]: the CC50 at 72 h in data set [1] was determined as 280 µM. Moreover, the “selectivity index (SI)” value in data set [2] came out at 14.2. Besides, the IC50 in data set [3] is 19.7 µM. Besides, in data set [4], the “mode of α-glucosidase inhibition” value was “competitive” and affinity was put at a Ki of 16.8 µM.
On to `O=C1C[C@](O)(c2ccccc2)[C@H](c2cc(O)c(Cc3c(O)cc(-c4c(-c5ccccc5)cc(O)c5c(O)cccc45)oc3=O)c(=O)o2)c2cccc(O)c21` [Compound 2, Wailupemycin I], for which, in data set [1], the CC50 at 72 h amounted to 1320 µM. In addition, the “selectivity index (SI)” value in data set [2] stood at 158.5. The IC50 in data set [3] stood at 8.3 µM. In addition, in data set [4], the “mode of α-glucosidase inhibition” value is listed as “competitive” and the affinity, expressed as Ki, was 6 µM.
For `O=C1CC(O)(c2ccccc2)C(c2cc(O)cc(=O)o2)c2cccc(O)c21` (stereo not shown) [Compound 3, Wailupemycin D], in data set [1], the CC50 at 72 h was 2750 µM. The “selectivity index (SI)” value in data set [2] turned out to be 2.8. Moreover, the IC50 in data set [3] worked out at 989 µM.
`O=C1CC(O)(c2ccccc2)C(c2cc(O)cc(=O)o2)c2cccc(O)c21` (stereo not shown) [Compound 4, Wailupemycin E]: the “selectivity index (SI)” value in data set [2] came out at 7.6. Also, the CC50 in data set [2] (MTT, 72 h exposure, read-out: CC50, cytotoxicity on IEC-6 cell line) was found to be 2980 µM. Besides, the IC50 in data set [3] stood at 392 µM.
Turning to `O=c1cc(O)cc(-c2c(-c3ccccc3)cc(O)c3c(O)cccc23)o1` [Compound 5, wailupemycin G], the CC50 at 72 h in data set [1] was 2950 µM. In data set [2], the “selectivity index (SI)” value was 12.3. For the same compound, in data set [3], the IC50 was 239 µM.
